Values quoted from earlier work, collected in patent US20210121515A1, “COMPOSITION FOR USE IN THE PREVENTION AND/OR TREATMENT OF OSTEOARTICULAR DISEASES” (NEILOS S.R.L., priority 2018, published 2021).
pIC50: −log10 of the molar value.

Assays:
[1] = system: NF-κB, COX-2, superoxide dismutase; settings: rats
[2] = system: carrageenan edema and pleurisy; settings: doses of 1 mg/kg; comparable to 5 mg/kg of indomethacin
[3] = target: T1, mPGES-1 (Homo sapiens, UniProt O14684); settings: intact A549 cell assays
T1 construct: with an IC50 of 10 μM in intact A549 cell assays; endogenous in cells; host or cells: A549
T1 sequence (O14684 1-152): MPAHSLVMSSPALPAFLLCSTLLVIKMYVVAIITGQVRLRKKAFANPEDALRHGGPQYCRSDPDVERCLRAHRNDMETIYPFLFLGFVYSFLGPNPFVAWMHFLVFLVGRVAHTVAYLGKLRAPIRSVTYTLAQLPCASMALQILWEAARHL

Row | SMILES | levels of COX-2 [1] | levels of NF-κB [1] | levels of superoxide dismutase [1] | activity in acute inflammation models [2] | pIC50 [3]
1 | O=C(O)[C@H]1O[C@@H](Oc2cc3oc(-c4ccccc4)cc(=O)c3c(O)c2O)[C@H](O)[C@@H](O)[C@@H]1O [baicalin] | reduce | reduce | increasing |  | 
2 | C[C@H]1[C@H](C)CC[C@]2(C)CC[C@]3(C)C(=CC[C@@H]4[C@@]5(C)CC[C@@H](O)[C@](C)(C(=O)O)[C@@H]5CC[C@]43C)[C@H]12 [β-boswellic acid] |  |  |  | good activity | 5.00
